Laboratory results reported in patent publication US12458630B2, “Combination therapy for cancer” (The Regents of the University of California, priority 2020, dated 2025).
Entries after “also recorded” stand apart in the source; their conditions may differ.

Assays:
Type in all cases: cell-based, human
MIA PaCa-2 cells [1] = assay: TMR-DEX macropinosome uptake assay
Description: Cell imaging. Immunostaining was performed as described^44. Cells were cultured on coverslips and fixed in 4% PFA for 10 min at room temperature. After washing twice in PBS, cells were incubated in PBS containing 10% FBS to block nonspecific sites of antibody adsorption. The cells were then incubated with the appropriate primary antibodies (diluted 1:100) and secondary antibodies (diluted 1:500) in PBS containing 10% FBS with or without 0.1% saponin. For cell macropinosome visualization, 24 hrs after seeding, the cells were serum starved for 18 hrs. Macropinosomes were marked using a high-molecular-mass (70 KD) TMR-Dextran (Invitrogen)-uptake assay, wherein TMR-DEX was added to serum-free medium at a final concentration of 1 mg/ml for 30 min at 37° C. At the end of the incubation period, the cells were rinsed five times in cold PBS and immediately fixed in 4% PFA. For tissue macropinosome visualization^45, fresh pancreata were cut into pieces with an approximate 5-mm cuboidal shape. A tissue section was placed in a 24-well plate and injected 150 μL of 10 mg/ml TMR-DEX solution directly into the tissue piece. Another 250 μL of diluted TMR-DEX solution were added to the well to immerse the tissue section. The plate was incubated in the dark for 15 min at room temperature. Then the tissue section was rinsed twice in PBS before embedding in O.C.T. compound in a prelabeled cryomold. Specimens were frozen on dry ice and stored at −80° C. for further processing. Immunostaining was performed as described above. Images were captured using a TCS SPE Leica confocal microscope (Leica, Germany).
In some embodiments, Immunostaining was performed as described (Su et al., 2017). Cells were cultured on coverslips and fixed in 4% PFA for 10 min at room temperature or methanol for 10 min at −20° C. After washing twice in PBS, cells were incubated in PBS containing 10% FBS to block nonspecific sites of antibody adsorption. The cells were then incubated with the appropriate primary antibodies (diluted 1:100) and secondary antibodies (diluted 1:500) in PBS containing 10% FBS with or without 0.1% saponin. For cell macropinosome visualization, 24 hrs after seeding, the cells were serum starved for 18 hrs. Macropinosomes were marked using a high-molecular-mass (70 KDa) TMR-DEX (Invitrogen)-uptake assay, wherein TMR-DEX was added to serum-free medium at a final concentration of 1 mg/ml for 30 min at 37° C. At the end of the incubation period, the cells were rinsed five times in cold PBS and immediately fixed in 4% PFA. For tissue macropinosome visualization (Lee et al., 2019), fresh pancreata were cut into pieces with an approximate 5-mm cuboidal shape. Tissue fragments were placed in a 24-well plate and injected with 150 μL of 10 mg/ml TMR-DEX solution. Another 250 μL of diluted TMR-DEX solution were added to the well to immerse the tissue fragment. The plate was incubated in the dark for 15 min at room temperature. Then the tissue fragments were rinsed twice in PBS before embedding in O.C.T. compound in a prelabeled cryomold. Specimens were frozen on dry ice and stored at −80° C. for further processing. Immunostaining was performed as described above. Images were captured using a TCS SPE Leica confocal microscope (Leica, Germany).
Quantification and statistics. To quantify the number of LC3 puncta, a total of 30 cells were recorded and analyzed using the LAS X measurement program on the TCS SPE Leica. Macropinosomes were quantified by using the ‘Analyze Particles’ feature in ImageJ (National Institutes of Health). Macropinocytic uptake index was computed by determining the total macropinosome area in relation to the total cell area for each field and then by determining the average across all the fields (at least 6 fields). These measurements were done on randomly-selected fields of view. Two-tailed unpaired Student's t test was performed for statistical analysis using GraphPad Prism software. […]

MIA PaCa-2 cells [2] = assay: LC3 puncta / LC3-LAMP1 immunofluorescence; details: MIA PaCa-2 cells, 10, 20, 40, 80 μM HCQ
Description: Cell imaging. Immunostaining was performed as described^44. Cells were cultured on coverslips and fixed in 4% PFA for 10 min at room temperature. After washing twice in PBS, cells were incubated in PBS containing 10% FBS to block nonspecific sites of antibody adsorption. The cells were then incubated with the appropriate primary antibodies (diluted 1:100) and secondary antibodies (diluted 1:500) in PBS containing 10% FBS with or without 0.1% saponin. For cell macropinosome visualization, 24 hrs after seeding, the cells were serum starved for 18 hrs. Macropinosomes were marked using a high-molecular-mass (70 KD) TMR-Dextran (Invitrogen)-uptake assay, wherein TMR-DEX was added to serum-free medium at a final concentration of 1 mg/ml for 30 min at 37° C. At the end of the incubation period, the cells were rinsed five times in cold PBS and immediately fixed in 4% PFA. For tissue macropinosome visualization^45, fresh pancreata were cut into pieces with an approximate 5-mm cuboidal shape. […]
Quantification and statistics. To quantify the number of LC3 puncta, a total of 30 cells were recorded and analyzed using the LAS X measurement program on the TCS SPE Leica. Macropinosomes were quantified by using the ‘Analyze Particles’ feature in ImageJ (National Institutes of Health). […]

MIA PaCa-2 cells [3] = assay: Immunoblot of p62 and LC3 (autophagic degradation)
Description: Autophagy Induction. […] For starvation, cells were incubated in starvation medium (20 mM HEPES pH 7.4, 140 mM NaCl, 1 mM CaC2, 1 mM MgCl2, and 1% BSA) for 1.5 or 2 hrs. For glucose starvation, cells were washed three times with PBS and incubated in glucose-free DMEM containing 10% dialyzed FBS for 4 hrs. Immunoblot and immunoprecipitation. Cells were harvested and lysed in RIPA buffer (50 mM Tris-HCl, pH 7.4, 150 mM NaCl, 1% Triton X-100, 1% Na deoxycholate, 0.1% SDS, 1 mM EDTA) supplemented with complete protease inhibitor cocktail. Proteins were resolved on SDS-polyacrylamide gels, and then transferred to a polyvinylidene difluoride membrane. After blocking with 5% (w/v) fat free milk, the membrane was stained with the corresponding primary antibodies followed by incubation with the appropriate secondary HRP-conjugated antibodies, and development with ECL. Immunoreactive bands were detected by automatic X-ray film processor or KwikQuant Imager.

MIA PaCa-2 cells [4] = assay: Cell viability assay (CCK-8)
Description: Cell viability assay. Cell viability was determined with Cell Counting Kit-8 assay (CCK-8 assay kit, Glpbio). Cells were plated in 96-well plates at a density of 3000 cells (MIA PaCa-2) or 1500 cells (KC6141) per well and incubated overnight prior to treatment. EIPA (10 μM), MRT68921 (600 nM) or erlotinib (2 μM, Sigma) were added to the wells for 72 and 96 hrs. Next, 10 μL of CCK-8 was added to each well. The optical density was read at 450 nm using a microplate reader (FilterMax F5, Molecular Devices, USA) at day 0, 1, 2, 3, and 4. For glutamine-deprivation assays, cells in 96-well plates were rinsed briefly in PBS and incubated in the 0.2 mM glutamine. Glutamine-free DMEM medium was supplemented with 0.2 mM glutamine in the presence of 10% dialysed FBS and 25 mM HEPES. For some conditions, the medium was supplemented with a final concentration of 2% BSA (Fraction V, fatty-acid-, nuclease and protease-free, Calbiochem). For all experiments, media were replaced every 24 hrs. Viable cell counts were obtained using CCK-8 assay described as above.
In some embodiments, cells were plated in 96-well plates coated with or without ECM at a density of 3000 cells (MIA PaCa-2, 1444, 1305, COLO 357/FG) or 1500 cells (KC6141) per well and incubated overnight prior to treatment. EIPA (10.5 μM), IPI549 (600 nM), MBQ-167 (500 nM), MRT68921 (600 nM) or erlotinib (2 μM, Sigma), ML385 (10 μM, Sigma), HCQ (10 μM or 80 μM) or their combinations were added to the wells for 24, 72 or 96 hrs. Next, 10 μL of CCK-8 was added to each well. The optical density was read at 450 nm using a microplate reader (FilterMax F5, Molecular Devices, USA) at day 0, 1, 2, 3, and 4. For glutamine-deprivation assays, cells in 96-well plates were rinsed briefly in PBS and incubated in the 0.2 mM glutamine. Glutamine-free DMEM medium was supplemented with 0.2 mM glutamine in the presence of 10% dialyzed FBS and 25 mM HEPES. For glucose-deprivation assays, cells in 96-well plates were rinsed briefly in PBS and incubated in the 0.5 mM glucose. Glucose-free DMEM medium was supplemented with 0.5 mM glucose in the presence of 10% dialyzed FBS and 25 mM HEPES. For some conditions, the medium was supplemented with a final concentration of 2% BSA (Fraction V, fatty-acid-, nuclease and protease-free, Calbiochem). For all experiments, media were replaced every 24 hrs. Viable cell counts were obtained using CCK-8 assay described as above.

COLO 357/FG cells = assay: LC3 puncta and p62/LC3 immunoblot; details: IKKα^low COLO 357/FG cells, normal or starvation medium 2 hrs, +/- CQ
Description: Autophagy Induction. […] For starvation, cells were incubated in starvation medium (20 mM HEPES pH 7.4, 140 mM NaCl, 1 mM CaC2, 1 mM MgCl2, and 1% BSA) for 1.5 or 2 hrs. For glucose starvation, cells were washed three times with PBS and incubated in glucose-free DMEM containing 10% dialyzed FBS for 4 hrs.
Immunoblot and immunoprecipitation. Cells were harvested and lysed in RIPA buffer (50 mM Tris-HCl, pH 7.4, 150 mM NaCl, 1% Triton X-100, 1% Na deoxycholate, 0.1% SDS, 1 mM EDTA) supplemented with complete protease inhibitor cocktail. Proteins were resolved on SDS-polyacrylamide gels, and then transferred to a polyvinylidene difluoride membrane. After blocking with 5% (w/v) fat free milk, the membrane was stained with the corresponding primary antibodies followed by incubation with the appropriate secondary HRP-conjugated antibodies, and development with ECL. Immunoreactive bands were detected by automatic X-ray film processor or KwikQuant Imager.
Data are presented as mean±SEM.

Row | Structure (SMILES) | disruption of MP (MIA PaCa-2 cells [1]; 10 μM HCQ, inferred from lack of synergy with MRT68921) | degradation of MP (DQ-BSA in TMR-DEX macropinosomes) (MIA PaCa-2 cells [1]; MIA PaCa-2 cells, 10, 20, 40, 80 μM HCQ) | MP (TMR-DEX and DQ-BSA co-localization, MP-related protein expression) (MIA PaCa-2 cells [1]; MIA PaCa-2 cells, 10-40 μM HCQ) | MP inhibition (MIA PaCa-2 cells [1]; MIA PaCa-2 cells, HCQ 10-80 μM) | LC3-LAMP1 colocalization (MIA PaCa-2 cells [2]) | autophagic degradation (LC3-II, p62, lysosomal LC3 retention) (MIA PaCa-2 cells [3]; MIA PaCa-2 cells, 10-40 μM HCQ) | synergy in growth inhibition with EIPA or ML385 (MIA PaCa-2 cells [4]; HCQ 10 μM combined with EIPA or ML385) | synergy in growth inhibition with MRT68921 (MIA PaCa-2 cells [4]; HCQ 10 μM combined with MRT68921) | cell growth (MIA PaCa-2 cells [4]; WT and IKKα^Δ MIA PaCa-2 cells, 80 μM HCQ, 3 days) | cell viability (total viable cells relative to vehicle) (MIA PaCa-2 cells [4]; WT and IKKα^Δ MIA PaCa-2 cells, 10 or 80 μM HCQ, 3 days) | LC3 puncta, LC3 lipidation and p62 on starvation (COLO 357/FG cells) | LC3 puncta, LC3 lipidation and p62 on starvation (COLO 357/FG cells; listed as chloroquine) | p62 and LC3-II levels (MIA PaCa-2 cells [3]; IKKα-deficient (KD) MIA PaCa-2 cells, normal or starvation medium 2 hrs, +/- CQ)
1 | CCN(CCO)CCCC(C)Nc1ccnc2cc(Cl)ccc12 (stereo not shown) [HCQ, hydroxychloroquine] | barely disrupted MP | induced the degradation of MP at 10 μM, 20 μM, 40 μM, but not at 80 μM | stimulated MP | inhibited MP only at 80 μM | enhanced LC3-LAMP1 colocalization in a concentration-dependent manner | inhibited autophagic degradation | synergized | did not synergize | inhibited cell growth | suppression of cell viability | – | – | –
2 | CCN(CC)CCCC(C)Nc1ccnc2cc(Cl)ccc12 (stereo not shown) [CQ, chloroquine] | – | – | – | – | – | – | – | – | – | – | not affected | no effect | did not increase p62 and LC3-II; also recorded: failed to increase p62 and LC3-II
